# Assays:
# [1] = system: EMT markers and MMPs in SiHa cells; assay: Western blot for EMT markers and MMPs, SiHa; type: cell-based, human; conditions: 24 hours
# Protocol: In a further example, cell lysates and western blot analysis was conducted for EMT markers and MMPs. […] In this example, about 70% of confluent SiHa and CaSki were treated with ORM-Br ([…]) for 24 hours. Cell lysates were prepared, and western blot analysis were conducted for EMT markers and MMPs analysis. The effect of ORM-Br on protein levels of cell-cycle regulatory proteins (cyclin E1 and p27) in both CaSki and SiHa cell lines are shown.
# The effect of Br-ORM on protein expression in cervical cancer cells were determined by Western blot analysis by using specific antibodies.
# Epithelial mesenchymal transition (EMT) is the basic characteristic of cancer cells in which epithelial cells undergo morphologic and molecular changes that transform the cells to mesenchymal, highly metastatic (invasive and motile), and drug-resistant phenotypes. Thus, targeting EMT may reduce the invasive phenotypes of a cancer cell and have significant advantage to overcome drug resistance. It has been reported that β-catenin is involved in invasion and metastasis via inducing EMT in various tumor cells. The effect of Br-ORM treatment on various EMT markers in cervical cancer cells was evaluated. […] The effect of Br-ORM on expression of EMT markers in cervical cancer cells compared to untreated group by use of qPCR analysis was determined. […] Expression of E-cadherin in cervical cancer cells treated with Br-ORM (10 μM) for 18 hours was also determined by immunofluorescence and confocal microscopy. Images were captured under 60× magnification and representative images are presented (FIG. 14G).
# FIG. 14. Br-ORM decreases migration, invasion and attenuates EMT in cervical cancer cells. Effect of Br-ORM on cell migration of cervical cancer cells as determined by agarose bead (FIG. 14A), scratch wound healing (FIG. 14B), and Boyden chamber assay (FIG. 14C). AB denotes agarose bead while MC denotes migratory cells. Arrows indicate the distance of cervical cancer (CaSki and SiHa) cells migration in control and Br-ORM treated groups (FIG. 14A(i)-(ii)). […] Closure of wound was determined and photographed using phase contrast microscopy. […] Bar graph represent the quantification of migrated CaSki cells of control and Br-ORM treated groups (FIG. 14C(ii)). […] Effect of Br-ORM treatment on invasion of CaSki cells as determined by a commercially available kit (BD Biosciences) as described in materials and methods. In brief, 24 hours post-treatment of Br-ORM, invaded cells were fixed, stained and counted. […] Bar graph represent the quantification of invaded CaSki cells of control and Br-ORM treated groups (FIG. 14D(ii)). […] Effect of Br-ORM on E-cadherin expression in cervical cancer cells as determined by confocal microscopy in control and Br-ORM treated cells after 18 hours.
# [2] = system: CaSki cells; assay: Colony formation assay, CaSki; type: cell-based, human; conditions: CaSki, 2.5, 5 and 7.5 μM
# Protocol: FIGS. 5A and 5B show representative colony images of CaSki cells (FIG. 5A) and SiHa cells (FIG. 5B) treated with various concentrations of ORM-Br ranging from […]. FIGS. 5C and 5D represent the quantification of colony formation in CaSki cells (FIG. 5C) and SiHa cells (FIG. 5D) treated with various concentrations of ORM-Br ranging from 0 to 7.5 μM.
# To determine the effect of Br-ORM on clonogenic potential of CaSki and SiHa cells, a colony formation assay was performed. In brief, 500 cells were seeded per well in a 6-well plate and allowed to stand for the next three days. The cells were treated with Br-ORM with different concentrations (2.5, 5, and 7.5 μM) for seven days and then followed by normal growth media. […] Colonies were fixed in methanol, stained with haematoxylin, and counted using UVP 810 software.
# FIG. 13. […] Cell viability was assessed by MTS assay. […] Bar graphs indicating quantification of colony formation in CaSki (i), and SiHa (ii) cells of cervical cancer with respect to vehicle control. […] Briefly, cervical cancer cells were treated with Br-ORM (10 μM) for 24 hours and the apoptosis inducing effect of Br-ORM was analyzed by Annexin V staining. […] The equal loading of protein in each lane was determined by probing the blots with β-actin antibody (FIG. 13F). […] Br-ORM arrests cell cycle in G1/S phase as determined by flow cytometry. […]
compound,measurement,setting,value
COc1ccc2c(c1)OC(C)(C)C(c1ccc(Br)cc1)C2c1ccc(OCCN2CCCC2)cc1 (stereo not drawn) [ORM-Br],"EMT associated markers (N-cadherin, vimentin and snail) expression",[1],inhibits the EMT associated markers
same,expression of E-cadherin,[1],induced the expression of E-cadherin
same,expression of MMP2 and MMP9,[1],inhibited the expression of MMP2 and MMP9
same,"EMT associated markers (N-cadherin, vimentin and snail) expression",[1]; listed as Br-ORM,marked inhibition
same,colony formation (clonogenic potential),[2],suppresses the clonogenic potential
same,colony formation (clonogenic potential),[2]; listed as Br-ORM,significantly decreased the number of colonies

# Reference: patent publication US20240208950A1, “COMPOSITIONS AND METHODS FOR TREATMENT OF CERVICAL AND OVARIAN CANCER” (SOUTH DAKOTA BOARD OF REGENTS, priority 2021, published 2024)
